Measured values: patent US8840849B2, “Permeation device and method for reducing aqueous boundary layer thicknesses” (Pion, Inc., priority 2004, dated 2014)
Structures can show the parent of a compound that is named as a salt.

How the values were obtained:
in vitro = test: in vitro
Excerpt: Additionally, those molecular entities that are footnoted as “2” had permeability measurements obtained in an aqueous buffer and a buffer having 20 percent acetonitrile added thereto. For this example, a PAMPA Evolution instrument from pION INC of Woburn, Mass.
Solution pH was adjusted using a universal buffer as well as a buffer solution having a pH of 7.4 and containing a chemical scavenger to simulate serum proteins, which can be obtained from pION INC of Woburn, Mass. […] Donor and acceptor microtitre plates with 96 compartments were also employed for this example. The acceptor plate was obtained from Millipore Corporation of Billerica, Mass.
This approach for determining Pe is often referred to as the pKa^FLUX method.
As indicated above, the acceptor solutions contained a surfactant in order to mimic some of the function of serum proteins.
When not being stirred, a PAMPA sandwich was formed and permitted to incubate in the GUT-BOX at about 23° C. for up to several hours in an atmosphere saturated in humidity and scrubbed free of oxygen and carbon dioxide. Preferably, incubation was performed for up to about four hours. […] For example, the stirring members in FIG. 10 can be magnetized flippers that are controlled by a magnetic stirrer in the GUT-BOX, which causes the members to rotate about a horizontal axis. A speed dial for the magnetic stirrer, as described above, can be calibrated in units of thickness of the expected boundary layer rather than as standard units such as rpm.
After a permeation time in the GUT-BOX was reached, the PAMPA sandwich could then be separated and the donor and acceptor compartments studied for the amount of entity present. The amount of entity present was determined from UV measurements compared to UV spectra obtained from reference standards. The reference UV spectra were performed in a range from about 230 to 500 nanometers (nm). Moreover, mass balance was used to determine the amount of material retained by the porous support and DOUBLE-SINK GIT-0 lipid as generally described by Avdeef et al., Eur. J. Pharm.
The determination of Pe also accounted for the porous support area and its porosity. In particular, the support area of 0.3 centimeters squared (cm^2) was multiplied by the apparent porosity (εa) of the support, which was about 0.76, such as generally described by Nielsen et al., Eur. J. Pharm.
The majority of the data in Tables 1 through 5 is from unstirred assays and those stirred at about 186 rpm. […] The maximum speed used for these entities was 622 rpm.
Again, several entities were studied in a buffer comprising about 20 percent acetonitrile. These entities are footnoted as “1” in Tables 1 through 5. […] Tables 1 through 5 are provided below with Table 1 at 0 rpm, Table 2 stirred at 49 rpm, Table 3 stirred at 118 rpm, Table 4 stirred at 186 rpm and Table 5 stirred at 622 rpm. Tables 1 through 5 also include the standard deviation (SD) of determined Pu values.
The boundary layer thickness (h) in Tables 1 through 5 can be determined by […] of diffusion, which is
Pu values derived at various stirring speeds by using the pKa^FLUX method, as described above, were also subjected to a hydrodynamic analysis using the equation Pu=Kν^α in a logarithmic form. For example, FIG. 13 provides a plot of the logarithm of Pu versus the logarithm of ν comprising 36 measurements based on 14 molecular entities studied at several different stirring speeds. The intercept in such a plot is the logarithm of the stirring efficiency factor (K) with the slope being the hydrodynamic factor (α).

Caco-2 type cells = conditions: testosterone data at 22° C., Adson et al.; dashed line FIG. 15; cited from earlier work
[1] = testosterone at 37° C., Karlsson et al.; dotted curve FIG. 15; cited from earlier work
[2] = PAMPA, Pu (boundary layer permeability)
[3] = 0 rpm (unstirred), aqueous buffer, pKa^FLUX method
[4] = PAMPA, Pu (boundary layer permeability), 0 rpm (unstirred), aqueous buffer, pKa^FLUX method

O=C(O)c1ccc2ccccc2c1 [2-naphthoic acid]
Papp at 50 µM (in vitro; [2]): 595 ×10⁻⁶ cm/s

O=C(O)Cc1cccc(O)c1 [3-hydroxyphenylacetic acid]
Papp at 50 µM (in vitro; [2]): 50 ×10⁻⁶ cm/s

CCCCN1CCN(c2cc3c(cc2F)c(=O)c(C(=O)O)cn3C2CC2)CC1C (stereo not shown) [4′N-Bu-3′-Me-ciprofloxacin]
Pu (boundary layer permeability) (in vitro; [3]): 23

CCN1CCN(c2cc3c(cc2F)c(=O)c(C(=O)O)cn3C2CC2)CC1C (stereo not shown) [4′N-Et-3′-Me-ciprofloxacin]
Pu (boundary layer permeability) (in vitro; [3]): 53

CCCN1CCN(c2cc3c(cc2F)c(=O)c(C(=O)O)cn3C2CC2)CC1C (stereo not shown) [4′N-Pr-3′-Me-ciprofloxacin]
Pu (boundary layer permeability) (in vitro; [3]): 40

CCCC(=O)Nc1ccc(OCC(O)CNC(C)C)c(C(C)=O)c1 (stereo not shown) [Acebutolol, acebutolol]
Papp at 50 µM (in vitro; [2]): 63 ×10⁻⁶ cm/s

CCOC(=O)C1=C(COCCN)NC(C)=C(C(=O)OC)C1c1ccccc1Cl (stereo not shown) [Amlodipine, amlodipine-maleate]
Papp at 50 µM (in vitro; [2]): 1380 ×10⁻⁶ cm/s

COc1ccc(CCN2CCC(Nc3nc4ccccc4n3Cc3ccc(F)cc3)CC2)cc1 [Astemizole, astemizole]
Papp at 50 µM (in vitro; [2]): 746 ×10⁻⁶ cm/s

C[C@@H](CO)NC(=O)[C@@H]1C=C2c3cccc4[nH]cc(c34)C[C@H]2N(C)C1 [Ergonovine, ergonovine]
Papp at 50 µM (in vitro; PAMPA): 25 ×10⁻⁶ cm/s

CC(C)Cc1ccc(C(C)C(=O)O)cc1 (stereo not shown) [Ibuprofen, ibuprofen]
Papp at 50 µM (in vitro; [2]): 40 ×10⁻⁶ cm/s

CCC(C)n1ncn(-c2ccc(N3CCN(c4ccc(OCC5COC(Cn6cncn6)(c6ccc(Cl)cc6Cl)O5)cc4)CC3)cc2)c1=O (stereo not shown) [Itraconazole, itraconazole]
Pu (boundary layer permeability) (in vitro; PAMPA, 50 µM): 2210 | Papp at 50 µM (in vitro; [2]): 1360 ×10⁻⁶ cm/s

Cc1c(OCC(F)(F)F)ccnc1C[S+]([O-])c1nc2ccccc2[nH]1 (stereo not shown) [Lansoprazole, lansoprazole]
Papp at 50 µM (in vitro; [2]): 35 ×10⁻⁶ cm/s

Clc1ccc(COC(Cn2ccnc2)c2ccc(Cl)cc2Cl)c(Cl)c1 (stereo not shown) [Miconazole, miconazole-nitrate]
Pu (boundary layer permeability) (in vitro; PAMPA, 50 µM): 1520 | Papp at 50 µM (in vitro; [2]): 1690 ×10⁻⁶ cm/s

CCn1cc(C(=O)O)c(=O)c2ccc(C)nc21 [Nalidixic acid, nalidixic acid]
Papp at 50 µM (in vitro; [2]): 44 ×10⁻⁶ cm/s

O=C1C[C@@H](c2ccc(O)cc2)Oc2cc(O)cc(O)c21 [Naringenin, naringenin]
Papp at 50 µM (in vitro; [2]): 39 ×10⁻⁶ cm/s

COC(=O)C1=C(C)NC(C)=C(C(=O)OCCN(C)Cc2ccccc2)C1c1cccc([N+](=O)[O-])c1 (stereo not shown) [Nicardipine, nicardipine]
Papp at 50 µM (in vitro; [2]): 1250 ×10⁻⁶ cm/s

CNCCC=C1c2ccccc2CCc2ccccc21 [Nortriptyline, nortriptyline-HCl]
Papp at 50 µM (in vitro; [2]): 60 ×10⁻⁶ cm/s

Cc1nccn1CC1CCc2c(c3ccccc3n2C)C1=O (stereo not shown) [Ondansetron, ondansetron]
Pu (boundary layer permeability) (in vitro; PAMPA): 6949 | Papp at 50 µM (in vitro; [2]): 59 ×10⁻⁶ cm/s

O=C1NC(=O)C(c2ccccc2)(c2ccccc2)N1 [Phenytoin, phenytoin-Na]
Papp at 50 µM (in vitro; [2]): 26 ×10⁻⁶ cm/s

CN1C(C(=O)Nc2ccccn2)=C(O)c2ccccc2S1(=O)=O [Piroxicam, piroxicam]
Papp at 50 µM (in vitro; [2]): 31 ×10⁻⁶ cm/s

COc1cc2nc(N3CCN(C(=O)c4ccco4)CC3)nc(N)c2cc1OC [Prazosin, prazosin-HCl]
Papp at 50 µM (in vitro; [2]): 38 ×10⁻⁶ cm/s

CC(C)NCC(O)COc1cccc2ccccc12 (stereo not shown) [Propranolol, propranolol-HCl]
Papp at 50 µM (in vitro; [4]): 41 ×10⁻⁶ cm/s | Papp at 50 µM (in vitro; PAMPA, Pu (boundary layer permeability), stirred at 49 rpm, aqueous buffer): 369 ×10⁻⁶ cm/s | Papp at 50 µM (in vitro; PAMPA, Pu (boundary layer permeability), stirred at 118 rpm, aqueous buffer): 601 ×10⁻⁶ cm/s | Papp at 50 µM (in vitro; PAMPA, Pu (boundary layer permeability), stirred at 186 rpm, aqueous buffer): 951 ×10⁻⁶ cm/s | Papp at 50 µM (in vitro; PAMPA, Pu (boundary layer permeability), stirred at 622 rpm, aqueous buffer): 3110 ×10⁻⁶ cm/s

CNCCCC1c2ccccc2C=Cc2ccccc21 [Protriptyline, protriptyline-HCl]
Papp at 50 µM (in vitro; [2]): 2150 ×10⁻⁶ cm/s

O=C(O)c1ccccc1O [Salicylic acid, salicylic acid]
Papp at 50 µM (in vitro; [2]): 37 ×10⁻⁶ cm/s

CC(C)(C)c1ccc(C(O)CCCN2CCC(C(O)(c3ccccc3)c3ccccc3)CC2)cc1 (stereo not shown) [Terfenadine, terfenadine]
Papp at 50 µM (in vitro; [2]): 2440 ×10⁻⁶ cm/s

CCOC(=O)C1=C(CSCCN)NC(C)=C(C(=O)OC)C1c1cccc([N+](=O)[O-])c1 (stereo not shown) [Tiamdipine, tiamdipine]
Pu (boundary layer permeability) (in vitro; PAMPA): 951

CC(=O)CC(c1ccccc1)c1c(O)c2ccccc2oc1=O (stereo not shown) [Warfarin, warfarin]
Papp at 50 µM (in vitro; [4]): 70 ×10⁻⁶ cm/s

CN(C)C/C=C(/c1ccc(Br)cc1)c1cccnc1 [Zimelidine, zimelidine]
Papp at 50 µM (in vitro; [2]): 1670 ×10⁻⁶ cm/s

C[C@]12CC[C@H]3[C@@H](CCC4=CC(=O)CC[C@@]43C)[C@@H]1CC[C@@H]2O [testosterone]
Daq (Caco-2 type cells): 5e-06 cm/s | Daq [1]: 7.84e-06 cm/s
